# pEC50: −log10 of the molar value.
# Biological target: T1, muscarinic M1 receptor (Homo sapiens, UniProt P11229)
# T1 construct: expressed in transfected cells; host or cells: CHO (M1-CHO cells)
# T1 sequence (P11229 1-460): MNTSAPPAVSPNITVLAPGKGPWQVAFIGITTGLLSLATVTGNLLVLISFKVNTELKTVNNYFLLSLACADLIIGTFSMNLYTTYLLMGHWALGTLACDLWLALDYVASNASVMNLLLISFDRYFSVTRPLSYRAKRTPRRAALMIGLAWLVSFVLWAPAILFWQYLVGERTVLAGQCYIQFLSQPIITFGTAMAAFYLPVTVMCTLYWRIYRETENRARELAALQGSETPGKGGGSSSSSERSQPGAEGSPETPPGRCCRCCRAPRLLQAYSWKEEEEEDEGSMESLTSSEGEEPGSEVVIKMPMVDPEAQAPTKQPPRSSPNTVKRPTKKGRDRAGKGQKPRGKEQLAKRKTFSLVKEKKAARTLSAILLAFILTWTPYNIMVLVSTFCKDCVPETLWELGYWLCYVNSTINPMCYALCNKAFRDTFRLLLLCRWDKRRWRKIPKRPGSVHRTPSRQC
# Test: M1 PAM Assay (IP-One HTRF, IP1 in M1-CHO cells with EC20 of acetylcholine)
# Assay type: cell-based
# Details: 1 hour at room temperature, IP1 readout
# Description: M1-CHO cells are plated in culture medium (HAM's F12, P/S, 10% FCS) on the day before the experiment with 10 000 cells/well in a 384 well plate (3750 Corning White 384 w plate with lid). On the day of experiment, cells are washed with PBS and IPone buffer is added (glucose 5.5 mM, NaCl 146 mM, MgCl2 0.5 mM, HEPES 10 mM, LiCl 50 mM, CaCl2 1 mM, KCl 4.2 mM). Then diluted compounds (1% DMSO final concentration) are added together with EC20 of acetylcholine and incubated with the cells for 1 hour at room temperature. The intracellular concentration of IP1 is then measured using the IP-One HTRF assay from Cisbio.
row,Compound,pEC50
1,"Cc1nc2c3c(nn2c(C)c1Cl)CN(C(=O)c1ccccc1OC1CCN(C)CC1)C3 [Example 1, (6-chloro-5,7-dimethyl-1H,3H-2,4,7a,8-tetraaza-cyclopenta[a]inden-2-yl)-[2-(1-methyl-piperidin-4-yloxy)-phenyl]-methanone]",> 6.70
2,"Cc1nc2c3c(nn2c(C)c1Cl)CN(C(=O)c1ccccc1OC(F)(F)C(F)F)C3 [Example 2, (6-chloro-5,7-dimethyl-1H,3H-2,4,7a,8-tetraaza-cyclopenta[a]inden-2-yl)-[2-(1,1,2,2-tetrafluoro-ethoxy)-phenyl]-methanone]",> 6.70
3,"Cc1nc2c3c(nn2c(C)c1Cl)CN(C(=O)c1ccccc1OC1CCNCC1)C3 [Example 3, (6-chloro-5,7-dimethyl-1H,3H-2,4,7a,8-tetraaza-cyclopenta[a]inden-2-yl)-[2-(piperidin-4-yloxy)-phenyl]-methanone]",> 6.70
4,"Cc1nc2c3c(nn2c(C)c1C)CN(C(=O)c1ccccc1OC1CCN(C)CC1)C3 [Example 4, [2-(1-methyl-piperidin-4-yloxy)-phenyl]-(5,6,7-trimethyl-1H,3H-2,4,7a,8-tetraaza-cyclopenta[a]inden-2-yl)-methanone]",6.00 to 6.70
5,"CCOc1cc(F)ccc1C(=O)N1Cc2nn3c(C)c(Cl)c(C)nc3c2C1 [Example 5, (6-chloro-5,7-dimethyl-1H,3H-2,4,7a,8-tetraaza-cyclopenta[a]inden-2-yl)-(2-ethoxy-4-fluoro-phenyl)-methanone]",6.00 to 6.70
6,"Cc1nc2c3c(nn2c(C)c1Cl)CN(C(=O)c1ccccc1N1CCCN(C)CC1)C3 [Example 6, (6-chloro-5,7-dimethyl-1H,3H-2,4,7a,8-tetraaza-cyclopenta[a]inden-2-yl)-[2-(4-methyl-[1,4]diazepan-1-yl)-phenyl]-methanone]",6.00 to 6.70
7,"Cc1nc2c3c(nn2c(C)c1Cl)CN(C(=O)c1ccccc1N1CCCC1)C3 [Example 7, (6-chloro-5,7-dimethyl-1H,3H-2,4,7a,8-tetraaza-cyclopenta[a]inden-2-yl)-(2-pyrrolidin-1-yl-phenyl)-methanone]",6.00 to 6.70
8,"Cc1nc2c3c(nn2c(C)c1Cl)CN(C(=O)c1ccccc1OC(C)C)C3 [Example 9, (6-chloro-5,7-dimethyl-1H,3H-2,4,7a,8-tetraaza-cyclopenta[a]inden-2-yl)-(2-isopropoxy-phenyl)-methanone]",6.00 to 6.70
9,"CCOc1ccccc1C(=O)N1Cc2nn3c(C)c(C)c(C)nc3c2C1 [Example 12, (2-ethoxy-phenyl)-(5,6,7-trimethyl-1H,3H-2,4,7a,8-tetraaza-cyclopenta[a]inden-2-yl)-methanone]",6.00 to 6.70
10,"CCOc1ccc(F)cc1C(=O)N1Cc2nn3c(C)c(C)c(C)nc3c2C1 [Example 13, (2-ethoxy-5-fluoro-phenyl)-(5,6,7-trimethyl-1H,3H-2,4,7a,8-tetraaza-cyclopenta[a]inden-2-yl)-methanone]",6.00 to 6.70
11,"Cc1nc2c3c(nn2c(C)c1C)CN(C(=O)c1ccccc1OC(F)(F)F)C3 [Example 17, (2-trifluoromethoxy-phenyl)-(5,6,7-trimethyl-1H,3H-2,4,7a,8-tetraaza-cyclopenta[a]inden-2-yl)-methanone]",6.00 to 6.70
12,"Cc1nc2c3c(nn2c(C)c1Cl)CN(C(=O)c1ccc(F)cc1OCCn1cccn1)C3 [Example 18, (6-chloro-5,7-dimethyl-1H,3H-2,4,7a,8-tetraaza-cyclopenta[a]inden-2-yl)-[4-fluoro-2-(2-pyrazol-1-yl-ethoxy)-phenyl]-methanone]",6.00 to 6.70
13,"Cc1nc2c3c(nn2c(C)c1C)CN(C(=O)c1ccccc1N1CCCN(C)CC1)C3 [Example 19, [2-(4-methyl-[1,4]diazepan-1-yl)-phenyl]-(5,6,7-trimethyl-1H,3H-2,4,7a,8-tetraaza-cyclopenta[a]inden-2-yl)-methanone]",6.00 to 6.70
14,"Cc1nc2c3c(nn2c(C)c1C)CN(C(=O)c1ccccc1OCCN1CCCCC1)C3 [Example 20, [2-(2-piperidin-1-yl-ethoxy)-phenyl]-(5,6,7-trimethyl-1H,3H-2,4,7a,8-tetraaza-cyclopenta[a]inden-2-yl)-methanone]",6.00 to 6.70
15,"CCCCOc1ccccc1C(=O)N1Cc2nn3c(C)c(C)c(C)nc3c2C1 [Example 21, (2-butoxy-phenyl)-(5,6,7-trimethyl-1H,3H-2,4,7a,8-tetraaza-cyclopenta[a]inden-2-yl)-methanone]",6.00 to 6.70
16,"CC(=O)Oc1ccccc1C(=O)N1Cc2nn3c(C)c(C)c(C)nc3c2C1 [Example 23, acetic acid 2-(5,6,7-trimethyl-1H,3H-2,4,7a,8-tetraaza-cyclopenta[a]indene-2-carbonyl)-phenyl ester]",6.00 to 6.70
17,"Cc1nc2c3c(nn2c(C)c1C)CN(C(=O)c1ccccc1OCCn1cccn1)C3 [Example 24, [2-(2-pyrazol-1-yl-ethoxy)-phenyl]-(5,6,7-trimethyl-1H,3H-2,4,7a,8-tetraaza-cyclopenta[a]inden-2-yl)-methanone]",6.00 to 6.70
18,"CSc1ccccc1C(=O)N1Cc2nn3c(C)c(C)c(C)nc3c2C1 [Example 25, (2-methylsulfanyl-phenyl)-(5,6,7-trimethyl-1H,3H-2,4,7a,8-tetraaza-cyclopenta[a]inden-2-yl)-methanone]",6.00 to 6.70
19,"Cc1nc2c3c(nn2c(C)c1C)CN(C(=O)c1ccccc1OC(C)C)C3 [Example 26, (2-isopropoxy-phenyl)-(5,6,7-trimethyl-1H,3H-2,4,7a,8-tetraaza-cyclopenta[a]inden-2-yl)-methanone]",6.00 to 6.70
20,"CCOc1ccccc1C(=O)N1Cc2nn3c(C)c(CC)c(C)nc3c2C1 [Example 27, (2-ethoxy-phenyl)-(6-ethyl-5,7-dimethyl-1H,3H-2,4,7a,8-tetraaza-cyclopenta[a]inden-2-yl)-methanone]",5.70 to 6.00
21,"Cc1nc2c3c(nn2c(C)c1C)CN(C(=O)c1ccccc1OCc1ccccc1)C3 [Example 29, (2-benzyloxy-phenyl)-(5,6,7-trimethyl-1H,3H-2,4,7a,8-tetraaza-cyclopenta[a]inden-2-yl)-methanone]",5.70 to 6.00

# Second part, the compound after the results:
row,pEC50,Compound
1,5.70 to 6.00,"CCOc1ccccc1C(=O)N1Cc2nn3cc(C)c(C)nc3c2C1 [Example 31, (5,6-Dimethyl-1H,3H-2,4,7a,8-tetraaza-cyclopenta[a]inden-2-yl)-(2-ethoxy-phenyl)-methanone]"
2,5.70 to 6.00,"Cc1cn2nc3c(c2nc1C)CN(C(=O)c1ccccc1OCCN(C)C)C3 [Example 32, [2-(2-dimethylamino-ethoxy)-phenyl]-(5,6-dimethyl-1H,3H-2,4,7a,8-tetraaza-cyclopenta[a]inden-2-yl)-methanone]"
3,5.70 to 6.00,"Cc1cn2nc3c(c2nc1C)CN(C(=O)c1ccccc1N1CCCN(C)CC1)C3 [Example 33, (5,6-dimethyl-1H,3H-2,4,7a,8-tetraaza-cyclopenta[a]inden-2-yl)-[2-(4-methyl-[1,4]diazepan-1-yl)-phenyl]-methanone]"
4,5.70 to 6.00,"CCOc1ccc(Cl)cc1C(=O)N1Cc2nn3c(C)c(C)c(C)nc3c2C1 [Example 34, (5-chloro-2-ethoxy-phenyl)-(5,6,7-trimethyl-1H,3H-2,4,7a,8-tetraaza-cyclopenta[a]inden-2-yl)-methanone]"
5,5.70 to 6.00,"Cc1nc2c3c(nn2c(C)c1Cl)CN(C(=O)c1ccccc1OC1CCOCC1)C3 [Example 35, (6-chloro-5,7-dimethyl-1H,3H-2,4,7a,8-tetraaza-cyclopenta[a]inden-2-yl)-[2-(tetrahydro-pyran-4-yloxy)-phenyl]-methanone]"
6,5.70 to 6.00,"Cc1nc2c3c(nn2c(C)c1C)CN(C(=O)c1ccccc1N1CCN(C)CC1)C3 [Example 36, [2-(4-methyl-piperazin-1-yl)-phenyl]-(5,6,7-trimethyl-1H,3H-2,4,7a,8-tetraaza-cyclopenta[a]inden-2-yl)-methanone]"
7,5.70 to 6.00,"CCNc1ccccc1C(=O)N1Cc2nn3c(C)c(C)c(C)nc3c2C1 [Example 37, (2-ethylamino-phenyl)-(5,6,7-trimethyl-1H,3H-2,4,7a,8-tetraaza-cyclopenta[a]inden-2-yl)-methanone]"
8,5.70 to 6.00,"Cc1cnc2c3c(nn2c1C)CN(C(=O)c1ccccc1OCCN(C)C)C3 [Example 38, [2-(2-dimethylamino-ethoxy)-phenyl]-(6,7-dimethyl-1H,3H-2,4,7a,8-tetraaza-cyclopenta[a]inden-2-yl)-methanone]"
9,5.70 to 6.00,"Cc1nc2c3c(nn2c(C)c1C)CN(C(=O)c1ccccc1-n1cccn1)C3 [Example 39, (2-pyrazol-1-yl-phenyl)-(5,6,7-trimethyl-1H,3H-2,4,7a,8-tetraaza-cyclopenta[a]inden-2-yl)-methanone]"
10,5.70 to 6.00,"Cc1nc2c3c(nn2c(C)c1C)CN(C(=O)c1ccccc1OCCC1CCCCC1)C3 [Example 40, [2-(2-cyclohexyl-ethoxy)-phenyl]-(5,6,7-trimethyl-1H,3H-2,4,7a,8-tetraaza-cyclopenta[a]inden-2-yl)-methanone]"
11,5.70 to 6.00,"Cc1cnc2c3c(nn2c1C)CN(C(=O)c1ccccc1N1CCCN(C)CC1)C3 [Example 41, (6,7-dimethyl-1H,3H-2,4,7a,8-tetraaza-cyclopenta[a]inden-2-yl)-[2-(4-methyl-[1,4]diazepan-1-yl)-phenyl]-methanone]"

# — patent publication US9403835B2, “Tetraaza-cyclopenta[a]indenyl and their use as positive allosteric modulators” (Merck Patent GmbH, priority 2011, dated 2016)
